Earlier results on one molecule are cited in US20080261937A1, “PHARMACEUTICAL COMPOSITIONS AND METHOD FOR TREATING PEDIATRIC HYPOGONADISM” (priority 2007, published 2008).

As for `C[C@]12CC[C@H]3[C@@H](CCC4=CC(=O)CC[C@@]43C)[C@@H]1CC[C@@H]2O` [testosterone], the “bound to proteins in the blood” value (circulating testosterone) is given as 98%. Besides, for the setting “in males”, the “share bound weakly to albumin” value is 60% and the “share of binding to sex hormone binding globulin (SHBG)” value is listed as “approximately 40%”.
